Source: US9006262B2 (priority 2011, dated 2015)

Tested on: C57BL/6 mouse line transplanted with B16-F10 melanoma cells
Details: in vivo

Structure (SMILES)	life-prolonging effect (survival rate / lifetime)	suppressive effect on body weight loss (percent change in body weight)
CN(C(=O)/C=C/c1ccoc1)[C@@H]1CC[C@@]2(O)[C@H]3Cc4ccc(O)c5c4[C@@]2(CCN3CC2CC2)[C@H]1O5.Cl [Compound 1, (−)-17-(cyclopropylmethyl)-3,14β-dihydroxy-4,5α-epoxy-6β-[N-methyl-trans-3-(3-furyl)acrylamido]morphinan hydrochloride]	statistically significant life-prolonging effect	statistically significant suppressive effect on body weight loss
CN1CC[C@]23c4c5ccc(O)c4O[C@H]2[C@@H](O)C=C[C@H]3[C@H]1C5 [morphine, Morphine]	tendency to reduce the lifetime	tendency of further body weight loss
